Measured values as given in US12528759B2, “Crystalline forms of bempedoic acid” (SYNTHON B.V., priority 2019, dated 2026).
Where two headings read alike, the source gives them in different places. Values belong to the compound of their own block, whether it stands above or below them.

Experiments:
[1] = Water content of the crystalline form under extreme high humidity; type: physicochemical
Solubility = type: physicochemical
[2] = Stability of the crystalline form when dried in oven; type: physicochemical; conditions: e.g. 40° C.
[3] = Flowability and stickiness of the solid form; type: physicochemical
[4] = prior-art solid form of WO2018218147; cited from earlier work

water content change when subjected to extreme high level of humidity ([1]; 70-90% relative humidity): did not change
water absorption or loss when subjected to extreme conditions ([1]; humidity above 70% relative humidity): does not absorb or lose water
solubility (Solubility): good
stability when dried in oven [2]: stable
SMILES: CC(C)(CCCCCC(O)CCCCCC(C)(C)C(=O)O)C(=O)O [Form B, 8-Hydroxy-2,2,14,14-tetramethylpentadecanedioic acid]

flowability [3]: good
stickiness [3]: not sticky
SMILES: CC(C)(CCCCCC(O)CCCCCC(C)(C)C(=O)O)C(=O)O [Form A, 8-Hydroxy-2,2,14,14-tetramethylpentadecanedioic acid]

SMILES: CC(C)(CCCCCC(O)CCCCCC(C)(C)C(=O)O)C(=O)O [solid form of Bempedoic acid, 8-Hydroxy-2,2,14,14-tetramethylpentadecanedioic acid]
flow characteristics [4]: poor
stickiness [4]: very sticky
